In patent US8399214B2 (Evonik Degussa GmbH, priority 2005, dated 2013):
Several values for one entry are separate records, joined by “and”; a condition that tells them apart may be missing. Identical values can stand only once. Like-named read-outs stand apart in the source and are kept apart here.

Tests used:
[1] = system: E. coli RY714B (metE::Tn10, ΔmetH); experiment: Growth on methionine free agar with DMDS in a centre well; type: cell-based; settings: 50 microliters DMDS in well, 30° C.
Description: (§1) The selection was for resistance to kanamycin sulfate at 25 mg/L on rich medium […] agar).

[2] = system: E. coli CGSC 3592 (metF64); experiment: as above; type: cell-based; settings: 50 microliters DMDS in well, 30° C.
Description: as §1

[3] = system: C. glutamicum M2014 (parent); experiment: Test tube growth in methionine-free medium, DMDS added directly; settings: for Optical densities at 600 nm: M2014, 36 hours at 30° C.
Excerpt: (§2) M2014 was transformed with plasmid pOM86 (FIG. 9) (SEQ ID NO:8) to yield a “Campbell in” strain. The “Campbell in” strain was then “Cambelled out” to yield a “Campbell out” strain named OM63.

[4] = system: C. glutamicum OM246C (ΔmetH, ΔmetE); settings: for Optical densities at 600 nm: OM246C, 24 hours at 30° C.
Excerpt: (§3) Other possible delivery systems include synthetic oils, organic solvents, chloro-carbons, fluoro-carbons, or chloro-fluoro-carbons.

[5] = system: C. glutamicum OM158 (ΔmetF, ΔmetY); settings: DMDS 0.2%, XAD4, 60 hours at 30° C.
Description: (§8) A test tube experiment was performed with M2014 derivatives that contain different combinations of deletions of metY, metB, and metF. […] The inoculum was approximately 5×10^3 cells per tube. Cells were grown at 30° C. in a platform shaker for 60 hours, and cell densities were measured at OD600.

C. glutamicum M2014 [6] = experiment: Test tube growth in methionine-free medium with Amberlite XAD4 as DMDS delivery system
Description: (§4) To this end, test tube experiments using 5 ml of medium were performed on OM63 and M2014.
(§5) To each test tube 100 μl of a sterile suspension of XAD4 in water (50% v/v) was added.

[7] = system: C. glutamicum OM63 (ΔmetF); type: cell-based; settings: 36 hours at 30° C.
Excerpt: as §2

[8] = system: C. glutamicum OM246C (ΔmetH, ΔmetE); type: cell-based; settings: 24 hours at 30° C.
Excerpt: as §3

C. glutamicum M2014 [9] = experiment: Test tube growth in methionine-free medium with mineral oil as DMDS delivery system; settings: for Optical densities at 600 nm: 24 hours at 30° C.
Excerpt: as §3

C. glutamicum M2014 [10] = experiment: Test tube growth in methionine-free medium with canola oil as DMDS delivery system; type: cell-based; settings: MF + Canola Oil + 0.2% DMDS, 24 hours at 30° C.
Excerpt: as §3

[11] = system: C. glutamicum OM101C (ΔmetF, ΔmetB); type: cell-based; settings: XAD4, 24 hours at 30° C.
Description: as §5

[12] = system: C. glutamicum OM246C (ΔmetE, ΔmetH); type: cell-based; settings: XAD4, 24 hours at 30° C.
Description: as §5

[13] = system: C. glutamicum OM63 (ΔmetF)
Description: as §4, §5

[14] = system: C. glutamicum OM101 (ΔmetF, ΔmetB); settings: DMDS 0.2%, XAD4, 60 hours at 30° C.
Description: as §8

[15] = system: C. glutamicum OM174 (ΔmetF, ΔmetB, ΔmetY); settings: DMDS 0.2%, XAD4, 60 hours at 30° C.
Description: as §8

C. glutamicum M2014 [16] = experiment: Shake flask study in molasses medium with XAD4, amino acid production with DMDS; type: cell-based; settings: strain 2014, 80 μl DMDS (0.4% v/v), XAD4, 30° C.
Description: (§6) Samples were taken from the medium and assayed for amino acid content. […] (AGILENT). A pre-column derivatization of the sample with ortho-phthalaldehyde allowed the quantification of produced amino acids after separation on a Hypersil AA-column (AGILENT).
(§7) A shake flask experiment was performed where OM246C was compared to M2014. […] Thus, the production of methionine occurs from the conversion of O-acetyl-homoserine directly to methionine, bypassing homocysteine.

C. glutamicum OM246C = experiment: as above; type: cell-based; settings: 80 μl DMDS (0.4% v/v), XAD4, 30° C.
Description: as §6, §7

## CSSC [DMDS, dimethyl disulfide]
[1]; RY714B transformed with empty vector pCLIK
  growth on methionine free agar with DMDS: neither strain transformed with empty vector pCLIK grew
[1]; RY714B transformed with pH309 or pH357 (metY)
  growth on methionine free agar with DMDS: grew on the plates
[2]; CGSC 3592 transformed with empty vector pCLIK
  growth on methionine free agar with DMDS: neither strain transformed with empty vector pCLIK grew
[2]; CGSC 3592 transformed with pH309 or pH357 (metY)
  growth on methionine free agar with DMDS: grew on the plates
[3]; MF + 0.02% DMDS
  Optical densities at 600 nm: 5.5
[3]; MF + 0.04% DMDS
  Optical densities at 600 nm: 5.3
[3]; MF + 0.06% DMDS
  Optical densities at 600 nm: 6.6
[3]; MF + 0.08% DMDS
  Optical densities at 600 nm: 0.0
[3]; MF + 0.1% DMDS
  Optical densities at 600 nm: 0.0
[3]; added directly to liquid cultures
  amount of DMDS tolerated by the cells: less than 0.06%
[3]; added directly to liquid cultures of C. glutamicum
  amount at which DMDS is toxic: greater than 0.06%
[4]; DMDS in mineral oil, strain printed as OM63
  maximum amount of DMDS that allowed cell growth: 0.4%
[4]; MF + Mineral Oil + 0.2% DMDS
  Optical densities at 600 nm: 1.1 and 1.6
[4]; MF + Mineral Oil + 0.4% DMDS
  Optical densities at 600 nm: 1.2 and 1.5
[4]; MF + Mineral Oil + 0.8% DMDS
  Optical densities at 600 nm: 0.0
[4]; MF + Mineral Oil + 1.2% DMDS
  Optical densities at 600 nm: 0.0
[5]
  OD600: 0.0
C. glutamicum M2014 [6]; M2014, DMDS 0.1%, XAD4, 24 hours at 30° C.
  Optical densities at 600 nm: 4.4 and 4.3
C. glutamicum M2014 [6]; M2014, DMDS 0.1%, XAD4, 42 hours at 30° C.
  Optical densities at 600 nm: 6.6
C. glutamicum M2014 [6]; M2014, DMDS 0.2%, XAD4, 24 hours at 30° C.
  Optical densities at 600 nm: 4.0 and 4.2
C. glutamicum M2014 [6]; M2014, DMDS 0.2%, XAD4, 42 hours at 30° C.
  Optical densities at 600 nm: 6.9
C. glutamicum M2014 [6]; M2014, DMDS 0.2%, XAD4, 60 hours at 30° C.
  OD600: 4.5 and 3.6
C. glutamicum M2014 [6]; M2014, DMDS 0.3%, XAD4, 24 hours at 30° C.
  Optical densities at 600 nm: 3.8 and 3.5
C. glutamicum M2014 [6]; M2014, DMDS 0.3%, XAD4, 42 hours at 30° C.
  Optical densities at 600 nm: 7.3
C. glutamicum M2014 [6]; M2014, DMDS 0.4%, XAD4, 24 hours at 30° C.
  Optical densities at 600 nm: 1.3 and 2.3
C. glutamicum M2014 [6]; M2014, DMDS 0.4%, XAD4, 42 hours at 30° C.
  Optical densities at 600 nm: 7.3
C. glutamicum M2014 [6]; M2014, DMDS 0.5%, XAD4, 42 hours at 30° C.
  Optical densities at 600 nm: 5.5
C. glutamicum M2014 [6]; M2014, DMDS with Amberlite XAD4
  maximum amount of DMDS that allowed cell growth: 0.4%
C. glutamicum M2014 [6]; in the presence of Amberlite XAD4 versus direct addition
  increase of the amount of DMDS that can be added before toxicity is observed: 5 fold
[7]; MF + 0.02% DMDS
  Optical densities at 600 nm: 5.4
[7]; MF + 0.04% DMDS
  Optical densities at 600 nm: 5.9
[7]; MF + 0.06% DMDS
  Optical densities at 600 nm: 5.2
[7]; MF + 0.08% DMDS
  Optical densities at 600 nm: 0.2
[7]; MF + 0.1% DMDS
  Optical densities at 600 nm: 0.0
[8]; MF + Canola Oil + 0.2% DMDS
  Optical densities at 600 nm: 1.9 and 1.7
[8]; MF + Canola Oil + 0.4% DMDS
  Optical densities at 600 nm: 1.1 and 1.3
[8]; MF + Canola Oil + 0.8% DMDS
  Optical densities at 600 nm: 0.0
C. glutamicum M2014 [9]; DMDS in mineral oil
  maximum amount of DMDS that allowed cell growth: 0.8%
C. glutamicum M2014 [9]; MF + Mineral Oil + 0.2% DMDS
  Optical densities at 600 nm: 1.4 and 1.2
C. glutamicum M2014 [9]; MF + Mineral Oil + 0.4% DMDS
  Optical densities at 600 nm: 1.5 and 1.3
C. glutamicum M2014 [9]; MF + Mineral Oil + 0.8% DMDS
  Optical densities at 600 nm: 1.4 and 1.7
C. glutamicum M2014 [9]; MF + Mineral Oil + 1.2% DMDS
  Optical densities at 600 nm: 0.0
C. glutamicum M2014 [10]
  Optical densities at 600 nm: 1.5 and 1.4
[11]; DMDS 0.1%
  Optical densities at 600 nm: 2.5 and 2.7
[11]; DMDS 0.2%
  Optical densities at 600 nm: 3.1 and 3.9
[11]; DMDS 0.3%
  Optical densities at 600 nm: 1.6 and 0.8
[11]; DMDS 0.4%
  Optical densities at 600 nm: 0.05 and 0.03
[11]; DMDS 0.5%
  Optical densities at 600 nm: 0.02 and 0.01
[12]; DMDS 0.1%
  Optical densities at 600 nm: 4.3 and 4.5
[12]; DMDS 0.2%
  Optical densities at 600 nm: 4.2 and 3.8
[12]; DMDS 0.3%
  Optical densities at 600 nm: 3.3 and 3.6
[12]; DMDS 0.4%
  Optical densities at 600 nm: 3.6 and 3.2
[12]; DMDS 0.5%
  Optical densities at 600 nm: 3.1 and 2.4
[13]; DMDS 0.1%, XAD4, 24 hours at 30° C.
  Optical densities at 600 nm: 3.0 and 3.3
[13]; DMDS 0.1%, XAD4, 42 hours at 30° C.
  Optical densities at 600 nm: 6.3
[13]; DMDS 0.2%, XAD4, 24 hours at 30° C.
  Optical densities at 600 nm: 1.7 and 3.4
[13]; DMDS 0.2%, XAD4, 42 hours at 30° C.
  Optical densities at 600 nm: 6.5
[13]; DMDS 0.2%, XAD4, 60 hours at 30° C.
  OD600: 1.2 and 1.3
[13]; DMDS 0.3%, XAD4, 24 hours at 30° C.
  Optical densities at 600 nm: 3.9 and 2.1
[13]; DMDS 0.3%, XAD4, 42 hours at 30° C.
  Optical densities at 600 nm: 4.9
[13]; DMDS 0.4%, XAD4, 24 hours at 30° C.
  Optical densities at 600 nm: 1.5 and 1.6
[13]; DMDS 0.4%, XAD4, 42 hours at 30° C.
  Optical densities at 600 nm: 3.6
[13]; DMDS 0.5%, XAD4, 24 hours at 30° C.
  Optical densities at 600 nm: 0.1
[13]; DMDS 0.5%, XAD4, 42 hours at 30° C.
  Optical densities at 600 nm: 1.6
[13]; DMDS with Amberlite XAD4
  maximum amount of DMDS that allowed cell growth: 0.4%
[14]
  OD600: 2.4 and 1.8
[15]
  OD600: 0.0
C. glutamicum M2014 [16]
  Gly + Hse: 1.0 g/L and 1.4 g/L
  Ile: 0.0 g/L
  Lys: 2.5 g/L
  OD600: 38 and 30
  O—Ac-hse: 4.3 g/L and 3.6 g/L
C. glutamicum OM246C
  Gly + Hse: 1.7 g/L and 1.3 g/L
  Ile: 0.0 g/L
  Lys: 3.2 g/L and 3.4 g/L
  OD600: 32 and 35
  O—Ac-hse: 4.6 g/L and 4.3 g/L
